Among the data in ChEMBL document CHEMBL5252655, “Discovery of Potent Deuterated Compounds as Potential KRASG12D Inhibitors in Cancer Therapy” (ACS Med Chem Lett, 2023) are IC50 values, retold here.

A value given as a limit tells only on which side of the number the result lay.

In the experiment the target is SOS1-KRAS (Homo sapiens, UniProt P01116, G12D). Description: Inhibition of SOS1/KRAS G12D mutant (unknown origin) protein-protein interaction incubated for 3 hrs by HTRF analysis. Background: TR-FRET usually uses a lanthanide donor and a delayed reading to cut background.
Sequence of SOS1-KRAS (P01116 whole entry G12D, looked up): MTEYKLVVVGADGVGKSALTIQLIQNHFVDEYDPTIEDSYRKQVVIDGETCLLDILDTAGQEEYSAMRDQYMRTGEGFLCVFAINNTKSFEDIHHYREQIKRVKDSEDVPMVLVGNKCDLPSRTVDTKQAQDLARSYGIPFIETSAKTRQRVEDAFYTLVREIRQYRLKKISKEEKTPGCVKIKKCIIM
What is called IC50 is the concentration at which inhibition is half-maximal. The low end stands for greater potency in that assay, the high end for weaker potency in that assay. The molecule `[2H]C([2H])(Oc1nc2c(c(N3CC4CCC(C3)N4)n1)CCN(c1cc(O)cc(Cl)c1C(F)(F)F)C2)C12CCCN1CCC2` gave a half-inhibitory concentration (IC50) greater than 50 nM.

The molecule `[2H]C([2H])(Oc1nc(N2CC3CCC2CN3)c2cnc(-c3cc(O)cc(Cl)c3C(F)(F)F)c(F)c2n1)C12CCCN1CCC2` (centres undefined) came in with an IC50 of no more than 50 nM.

With `[2H]C([2H])(Oc1nc2c(c(N3CC4CCC(C3)N4)n1)CCN(c1cc(O)ccc1C(F)(F)F)C2)C12CCCN1CCC2`, the concentration for half-maximal inhibition (IC50) was greater than 250 nM.

For the molecule `[2H]C([2H])(Oc1nc(N2CC3CCC(C2)N3)c2cnc(-c3cc(O)cc(Cl)c3C(F)(F)F)c(F)c2n1)C12CCCN1CCC2`, the IC50 was no more than 50 nM.
